Patent US11981658B2, “Substituted aminopyridine compounds as EGFR inhibitors” (YUHAN CORPORATION, priority 2021, dated 2024)
Where two headings read alike, the source gives them in different places.

Key:
EGFR Del19/C797S = EGFR Del19/C797S (Homo sapiens, UniProt P00533, C797S/DEL746-750); assay: Biochemical EGFR kinase inhibition assay (Lance Ultra TR-FRET), double mutant del19/C797S
In short: (§1)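 Step 1: compound in kinase buffer, 0.003–10 μM. Step 2: kinase reaction 1 h at room temperature. Step 4: TR-FRET read at 615/665 nm; IC50 calculated.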

EGFR wildtype (WT) = EGFR wildtype (WT) (Homo sapiens, UniProt P00533); assay: Biochemical EGFR kinase inhibition assay (Lance Ultra TR-FRET), wildtype
In short: as §1

EGFR L858R/C797S = EGFR L858R/C797S (Homo sapiens, UniProt P00533, C797S/L858R); assay: Biochemical EGFR kinase inhibition assay (Lance Ultra TR-FRET), double mutant L858R/C797S
In short: as §1

EGFR L858R/T790M/C797S = EGFR L858R/T790M/C797S (Homo sapiens, UniProt P00533, C797S/L858R/T790M); assay: Biochemical EGFR kinase inhibition assay (Lance Ultra TR-FRET), triple mutant L858R/T790M/C797S
In short: as §1

EGFR Del19/T790M/C797S = EGFR Del19/T790M/C797S (Homo sapiens, UniProt P00533, C797S/DEL746-750/T790M); assay: Biochemical EGFR kinase inhibition assay (Lance Ultra TR-FRET), triple mutant del19/T790M/C797S
In short: as §1

[1] = IC50 Del19/C797S (nM), 100 μM ATP
[2] = Km ATP, read-out: IC50 Del19/C797S (nM) Km ATP
[3] = Km ATP, read-out: IC50 WT (nM) Km ATP
[4] = IC50 L858R/C797S (nM), 100 μM ATP
[5] = Km ATP, read-out: IC50 L858R/C797S (nM) Km ATP
[6] = IC50 L858R/T790M/C797S (nM), 100 μM ATP
[7] = Km ATP, read-out: IC50 L858R/T790M/C797S (nM) Km ATP
[8] = IC50 Del19/T790M/C797S (nM), 100 μM ATP
[9] = Km ATP, read-out: IC50 Del19/T790M/C797S (nM) Km ATP
[10] = ATP at Km, read-out: IC50 Del19/C797S (nM), Km ATP
[11] = ATP at Km, read-out: IC50 WT (nM), Km ATP
[12] = ATP at Km, read-out: IC50 L858R/C797S (nM), Km ATP
[13] = ATP at Km, read-out: IC50 L858R/T790M/C797S (nM), Km ATP
[14] = ATP at Km, read-out: IC50 Del19/T790M/C797S (nM), Km ATP

EGFR Del19/T790M/C797S, sequence (P00533 with tags, fused parts or gaps DEL746-750/T790M/C797S): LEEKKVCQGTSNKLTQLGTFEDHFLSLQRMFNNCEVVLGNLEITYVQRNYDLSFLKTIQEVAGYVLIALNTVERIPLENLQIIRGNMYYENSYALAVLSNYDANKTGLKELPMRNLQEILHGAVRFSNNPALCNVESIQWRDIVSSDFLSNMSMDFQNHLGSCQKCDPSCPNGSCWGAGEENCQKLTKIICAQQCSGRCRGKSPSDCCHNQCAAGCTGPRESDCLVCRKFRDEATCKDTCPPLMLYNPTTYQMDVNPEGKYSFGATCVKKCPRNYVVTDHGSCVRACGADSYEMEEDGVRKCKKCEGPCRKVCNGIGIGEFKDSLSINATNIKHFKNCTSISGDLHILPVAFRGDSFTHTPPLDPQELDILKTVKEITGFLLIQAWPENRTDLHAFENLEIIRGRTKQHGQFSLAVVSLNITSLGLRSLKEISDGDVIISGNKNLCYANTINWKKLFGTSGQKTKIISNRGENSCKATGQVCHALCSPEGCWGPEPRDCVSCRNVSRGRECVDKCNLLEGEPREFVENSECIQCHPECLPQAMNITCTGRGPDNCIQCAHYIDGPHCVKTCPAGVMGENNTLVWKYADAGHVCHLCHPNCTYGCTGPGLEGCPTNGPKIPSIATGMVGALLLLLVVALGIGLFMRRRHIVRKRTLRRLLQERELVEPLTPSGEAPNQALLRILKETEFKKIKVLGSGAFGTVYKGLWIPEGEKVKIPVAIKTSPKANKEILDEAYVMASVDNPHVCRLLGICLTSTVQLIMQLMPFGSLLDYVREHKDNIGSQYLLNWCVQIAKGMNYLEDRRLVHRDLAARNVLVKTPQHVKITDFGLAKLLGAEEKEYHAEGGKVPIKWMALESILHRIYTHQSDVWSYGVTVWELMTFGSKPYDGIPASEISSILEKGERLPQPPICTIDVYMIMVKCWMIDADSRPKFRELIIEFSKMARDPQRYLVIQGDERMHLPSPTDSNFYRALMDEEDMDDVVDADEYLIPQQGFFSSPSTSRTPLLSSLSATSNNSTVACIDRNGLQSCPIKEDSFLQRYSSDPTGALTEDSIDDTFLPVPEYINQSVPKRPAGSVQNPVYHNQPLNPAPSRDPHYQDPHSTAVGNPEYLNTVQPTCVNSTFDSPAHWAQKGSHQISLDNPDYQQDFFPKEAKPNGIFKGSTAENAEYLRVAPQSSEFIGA
EGFR wildtype (WT), sequence (P00533 25-1210): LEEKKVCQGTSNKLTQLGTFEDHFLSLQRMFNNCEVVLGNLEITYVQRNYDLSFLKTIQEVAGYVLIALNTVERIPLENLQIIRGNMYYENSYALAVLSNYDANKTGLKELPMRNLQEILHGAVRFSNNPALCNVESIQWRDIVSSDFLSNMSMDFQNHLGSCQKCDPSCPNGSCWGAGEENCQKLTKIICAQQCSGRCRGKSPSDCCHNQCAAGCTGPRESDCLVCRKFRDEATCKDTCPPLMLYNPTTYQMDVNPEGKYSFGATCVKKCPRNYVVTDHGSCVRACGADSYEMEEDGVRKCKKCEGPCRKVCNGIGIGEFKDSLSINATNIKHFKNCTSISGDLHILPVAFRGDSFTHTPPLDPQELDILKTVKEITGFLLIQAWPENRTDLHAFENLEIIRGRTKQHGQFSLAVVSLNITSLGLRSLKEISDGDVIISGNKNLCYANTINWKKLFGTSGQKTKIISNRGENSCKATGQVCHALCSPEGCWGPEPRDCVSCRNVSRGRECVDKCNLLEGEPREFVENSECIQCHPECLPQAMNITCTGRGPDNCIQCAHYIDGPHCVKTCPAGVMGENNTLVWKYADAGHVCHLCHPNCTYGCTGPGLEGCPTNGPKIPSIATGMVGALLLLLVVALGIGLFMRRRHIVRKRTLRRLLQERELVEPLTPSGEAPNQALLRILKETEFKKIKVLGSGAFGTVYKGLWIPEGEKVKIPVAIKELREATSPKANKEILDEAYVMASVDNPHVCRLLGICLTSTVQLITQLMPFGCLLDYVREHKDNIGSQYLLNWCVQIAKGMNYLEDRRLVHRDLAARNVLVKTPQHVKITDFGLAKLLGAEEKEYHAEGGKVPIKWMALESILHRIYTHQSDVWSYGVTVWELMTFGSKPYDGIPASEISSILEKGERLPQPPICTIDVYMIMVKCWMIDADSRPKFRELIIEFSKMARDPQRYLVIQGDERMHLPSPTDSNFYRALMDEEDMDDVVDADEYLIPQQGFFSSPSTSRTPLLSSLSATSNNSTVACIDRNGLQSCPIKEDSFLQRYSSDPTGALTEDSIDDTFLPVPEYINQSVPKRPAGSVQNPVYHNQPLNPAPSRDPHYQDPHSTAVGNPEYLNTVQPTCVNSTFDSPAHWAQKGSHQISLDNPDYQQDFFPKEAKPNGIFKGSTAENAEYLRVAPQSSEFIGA
EGFR Del19/C797S, sequence (P00533 with tags, fused parts or gaps DEL746-750/C797S): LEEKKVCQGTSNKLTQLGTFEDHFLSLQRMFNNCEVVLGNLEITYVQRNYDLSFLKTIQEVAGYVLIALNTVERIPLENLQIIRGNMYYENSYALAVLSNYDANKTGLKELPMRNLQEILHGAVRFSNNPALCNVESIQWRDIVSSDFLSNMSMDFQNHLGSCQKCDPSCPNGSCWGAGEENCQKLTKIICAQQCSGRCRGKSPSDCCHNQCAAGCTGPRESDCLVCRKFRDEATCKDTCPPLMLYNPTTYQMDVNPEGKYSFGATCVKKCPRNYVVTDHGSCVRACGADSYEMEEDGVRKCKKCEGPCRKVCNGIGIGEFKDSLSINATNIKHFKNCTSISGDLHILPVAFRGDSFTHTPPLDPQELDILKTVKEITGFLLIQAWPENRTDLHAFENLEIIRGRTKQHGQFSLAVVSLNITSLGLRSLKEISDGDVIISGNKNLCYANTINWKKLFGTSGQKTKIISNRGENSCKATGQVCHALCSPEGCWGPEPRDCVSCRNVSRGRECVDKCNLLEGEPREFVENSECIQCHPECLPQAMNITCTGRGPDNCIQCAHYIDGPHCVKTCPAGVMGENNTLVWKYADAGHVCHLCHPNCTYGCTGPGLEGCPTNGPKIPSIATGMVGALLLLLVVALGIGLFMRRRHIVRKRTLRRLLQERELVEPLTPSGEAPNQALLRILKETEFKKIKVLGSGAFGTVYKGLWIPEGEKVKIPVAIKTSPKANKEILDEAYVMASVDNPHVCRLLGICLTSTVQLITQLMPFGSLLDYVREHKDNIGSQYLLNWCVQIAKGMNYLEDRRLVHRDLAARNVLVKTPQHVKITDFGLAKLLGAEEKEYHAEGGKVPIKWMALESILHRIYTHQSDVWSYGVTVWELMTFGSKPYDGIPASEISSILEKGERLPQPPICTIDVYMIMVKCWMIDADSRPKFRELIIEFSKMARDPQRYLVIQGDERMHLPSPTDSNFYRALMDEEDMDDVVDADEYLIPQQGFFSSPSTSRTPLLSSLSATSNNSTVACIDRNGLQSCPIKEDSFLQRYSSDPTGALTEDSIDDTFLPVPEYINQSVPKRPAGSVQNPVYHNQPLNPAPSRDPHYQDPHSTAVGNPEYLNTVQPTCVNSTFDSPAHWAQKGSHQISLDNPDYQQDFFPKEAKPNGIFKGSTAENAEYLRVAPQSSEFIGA
EGFR L858R/C797S, sequence (P00533 25-1210 C797S/L858R): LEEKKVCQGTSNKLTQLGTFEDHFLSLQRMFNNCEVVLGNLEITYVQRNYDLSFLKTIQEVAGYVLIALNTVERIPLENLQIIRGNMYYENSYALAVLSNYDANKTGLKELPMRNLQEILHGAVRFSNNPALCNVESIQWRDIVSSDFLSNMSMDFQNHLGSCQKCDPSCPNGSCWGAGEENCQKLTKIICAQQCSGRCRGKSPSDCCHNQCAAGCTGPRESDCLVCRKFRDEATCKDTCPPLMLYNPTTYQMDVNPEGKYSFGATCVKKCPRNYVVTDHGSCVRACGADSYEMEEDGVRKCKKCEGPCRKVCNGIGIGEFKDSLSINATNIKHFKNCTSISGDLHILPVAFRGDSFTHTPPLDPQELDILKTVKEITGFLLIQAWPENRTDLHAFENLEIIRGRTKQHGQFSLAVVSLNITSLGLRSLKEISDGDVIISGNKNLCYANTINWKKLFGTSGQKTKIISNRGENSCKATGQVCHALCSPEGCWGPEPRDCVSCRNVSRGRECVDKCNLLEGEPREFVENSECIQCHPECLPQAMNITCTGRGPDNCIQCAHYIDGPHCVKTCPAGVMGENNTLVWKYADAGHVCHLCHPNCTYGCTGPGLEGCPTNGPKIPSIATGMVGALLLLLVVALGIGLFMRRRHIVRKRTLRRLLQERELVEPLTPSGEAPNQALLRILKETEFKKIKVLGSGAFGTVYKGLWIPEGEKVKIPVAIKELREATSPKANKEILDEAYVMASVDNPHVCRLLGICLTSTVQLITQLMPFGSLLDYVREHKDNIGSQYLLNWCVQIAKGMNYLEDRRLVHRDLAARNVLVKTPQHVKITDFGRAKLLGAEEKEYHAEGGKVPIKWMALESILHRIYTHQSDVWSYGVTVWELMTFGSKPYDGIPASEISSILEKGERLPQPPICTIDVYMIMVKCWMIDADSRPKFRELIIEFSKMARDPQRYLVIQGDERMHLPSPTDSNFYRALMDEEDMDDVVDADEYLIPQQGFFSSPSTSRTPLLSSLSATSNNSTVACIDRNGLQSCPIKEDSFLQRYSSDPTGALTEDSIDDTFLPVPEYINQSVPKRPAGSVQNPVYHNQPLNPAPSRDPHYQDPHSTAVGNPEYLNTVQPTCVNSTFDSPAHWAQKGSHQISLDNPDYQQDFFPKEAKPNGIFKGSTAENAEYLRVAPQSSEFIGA

Row | SMILES | IC50 (EGFR Del19/C797S; [1]) | IC50 (EGFR Del19/C797S; [2]) | IC50 (EGFR wildtype (WT); IC50 WT (nM), 100 μM ATP) | IC50 (EGFR wildtype (WT); [3]) | IC50 (EGFR L858R/C797S; [4]) | IC50 (EGFR L858R/C797S; [5]) | IC50 (EGFR L858R/T790M/C797S; [6]) | IC50 (EGFR L858R/T790M/C797S; [7]) | IC50 (EGFR Del19/T790M/C797S; [8]) | IC50 (EGFR Del19/T790M/C797S; [9]) | IC50 (EGFR Del19/C797S; [10]) | IC50 (EGFR wildtype (WT); [11]) | IC50 (EGFR L858R/C797S; [12]) | IC50 (EGFR L858R/T790M/C797S; [13]) | IC50 (EGFR Del19/T790M/C797S; [14]) | IC50 (EGFR Del19/C797S; Km ATP, read-out: IC50 Del19/C797S (nM), Km ATP) | IC50 (EGFR wildtype (WT); Km ATP, read-out: IC50 WT (nM), Km ATP) | IC50 (EGFR L858R/C797S; Km ATP, read-out: IC50 L858R/C797S (nM), Km ATP) | IC50 (EGFR L858R/T790M/C797S; Km ATP, read-out: IC50 L858R/T790M/C797S (nM), Km ATP) | IC50 (EGFR Del19/T790M/C797S; Km ATP, read-out: IC50 Del19/T790M/C797S (nM), Km ATP)
1 | O=S(=O)(C1CC1)n1cc(-c2nccc(Nc3cc(N4CCC[C@H](O)C4)c(C#Cc4ccsc4)cn3)n2)cn1 [Example 228, (S)-1-(2-((2-(1-(Cyclopropylsulfonyl)-1H-pyrazol-4-yl)pyrimidin-4-yl)amino)-5-(thiophen-3-ylethynyl)pyridin-4-yl)piperidin-3-ol] | 274 nM | – | > 10000 nM | – | 494 nM | – | 21.8 nM | – | 6.2 nM | – | – | – | – | – | – | – | – | – | – | –
2 | CC(=O)N1CCC(n2cc(C#Cc3cnc(Nc4ccnc(-c5cnn(S(=O)(=O)C6CC6)c5)n4)cc3N3CCCC(O)C3)cn2)CC1 (stereo not drawn) [Example 114, 1-(4-(4-((6-((2-(1-(Cyclopropylsulfonyl)-1H-pyrazol-4-yl)pyrimidin-4-yl)amino)-4-(3-hydroxypiperidin-1-yl)pyridin-3-yl)ethynyl)-1H-pyrazol-1-yl)piperidin-1-yl)ethan-1-one] | 9.5 nM | 5.4 nM | > 10000 nM | 17.4 nM | 13.7 nM | 2.6 nM | 1.7 nM | 0.6 nM | 0.5 nM | 0.5 nM | – | – | – | – | – | – | – | – | – | –
3 | CN(C)Cc1ccc(C#Cc2cnc(Nc3ccnc(-c4cnn(S(=O)(=O)C5CC5)c4)n3)cc2N2CCC(C)(CO)CC2)cn1 [Example 278, (1-(2-((2-(1-(Cyclopropylsulfonyl)-1H-pyrazol-4-yl)pyrimidin-4-yl)amino)-5-((6-((dimethylamino)methyl)pyridin-3-yl)ethynyl)pyridin-4-yl)-4-methylpiperidin-4-yl)methanol] | 0.6 nM | – | 108 nM | – | 0.5 nM | – | 0.3 nM | – | 0.6 nM | – | 0.2 nM | 0.7 nM | 0.5 nM | 0.1 nM | 0.3 nM | – | – | – | – | –
4 | Cn1cc(C#Cc2cnc(Nc3ccnc(-c4cnn(S(=O)(=O)C5CC5)c4)n3)cc2N2CCC(O)C(C)(C)C2)cn1 (stereo not drawn) [Example 69, 1-(2-((2-(1-(Cyclopropylsulfonyl)-1H-pyrazol-4-yl)pyrimidin-4-yl)amino)-5-((1-methyl-1H-pyrazol-4-yl)ethynyl)pyridin-4-yl)-3,3-dimethylpiperidin-4-ol] | 43.8 nM | – | > 10000 nM | – | 179 nM | – | 13.2 nM | – | 1.7 nM | – | – | – | – | – | – | – | – | – | – | –
5 | C[C@]1(O)CCCN(c2cc(Nc3ccnc(-c4cnn(S(=O)(=O)C5CC5)c4)n3)ncc2C#Cc2cnn(C(F)(F)F)c2)C1 [Example 448, (S)-1-(2-((2-(1-(Cyclopropylsulfonyl)-1H-pyrazol-4-yl)pyrimidin-4-yl)amino)-5-((1-(trifluoromethyl)-1H-pyrazol-4-yl)ethynyl)pyridin-4-yl)-3-methylpiperidin-3-ol] | 44.7 nM | – | > 10000 nM | – | 503 nM | – | 6.1 nM | – | 1.7 nM | – | – | – | – | – | – | 27.7 nM | 300 nM | 5.8 nM | 1.2 nM | 1 nM
6 | CC1(CO)CCN(c2cc(Nc3ccnc(-c4cnn(S(C)(=O)=O)c4)n3)ncc2C#Cc2cnn(C(F)(F)F)c2)CC1 [Example 268, (4-Methyl-1-(2-((2-(1-(methylsulfonyl)-1H-pyrazol-4-yl)pyrimidin-4-yl)amino)-5-((1-(trifluoromethyl)-1H-pyrazol-4-yl)ethynyl)pyridin-4-yl)piperidin-4-yl)methanol] | 59.6 nM | – | > 10000 nM | – | 116 nM | – | 2.9 nM | – | 6.2 nM | – | 26.6 nM | 105 nM | 41.8 nM | 1 nM | 2.4 nM | – | – | – | – | –

The remaining molecules from weak to strong by IC50 (EGFR Del19/C797S; [1]), led by results:

Row | IC50 (EGFR Del19/C797S; [1]) | IC50 (EGFR Del19/C797S; [2]) | IC50 (EGFR wildtype (WT); IC50 WT (nM), 100 μM ATP) | IC50 (EGFR wildtype (WT); [3]) | IC50 (EGFR L858R/C797S; [4]) | IC50 (EGFR L858R/C797S; [5]) | IC50 (EGFR L858R/T790M/C797S; [6]) | IC50 (EGFR L858R/T790M/C797S; [7]) | IC50 (EGFR Del19/T790M/C797S; [8]) | IC50 (EGFR Del19/T790M/C797S; [9]) | IC50 (EGFR Del19/C797S; [10]) | IC50 (EGFR wildtype (WT); [11]) | IC50 (EGFR L858R/C797S; [12]) | IC50 (EGFR L858R/T790M/C797S; [13]) | IC50 (EGFR Del19/T790M/C797S; [14]) | IC50 (EGFR Del19/C797S; Km ATP, read-out: IC50 Del19/C797S (nM), Km ATP) | IC50 (EGFR wildtype (WT); Km ATP, read-out: IC50 WT (nM), Km ATP) | IC50 (EGFR L858R/C797S; Km ATP, read-out: IC50 L858R/C797S (nM), Km ATP) | IC50 (EGFR L858R/T790M/C797S; Km ATP, read-out: IC50 L858R/T790M/C797S (nM), Km ATP) | IC50 (EGFR Del19/T790M/C797S; Km ATP, read-out: IC50 Del19/T790M/C797S (nM), Km ATP) | SMILES
7 | 88.5 nM | – | > 10000 nM | – | 287 nM | – | 22 nM | – | 82.1 nM | – | 17 nM | 192 nM | 6.3 nM | – | 10.2 nM | – | – | – | – | – | COC1(C)CCN(c2cc(Nc3ccnc(-c4cnn(S(=O)(=O)C5CC5)c4)n3)ncc2C#Cc2cccnc2)CC1 [Example 281, 2-(1-(Cyclopropylsulfonyl)-1H-pyrazol-4-yl)-N-(4-(4-methoxy-4-methylpiperidin-1-yl)-5-(pyridin-3-ylethynyl)pyridin-2-yl)pyrimidin-4-amine]
8 | 58.4 nM | – | > 10000 nM | – | 619 nM | – | 26.3 nM | – | 22.9 nM | – | 44.8 nM | 540 nM | 39.9 nM | 12.2 nM | 27.6 nM | – | – | – | – | – | CC(C)(O)[C@H]1CC[C@@H](Nc2cc(Nc3ccnc(-c4cnn(S(=O)(=O)C5CC5)c4)n3)ncc2C#Cc2ccc(CN3CCOCC3)cc2)CC1 [Example 162, 2-((1s,4s)-4-((2-((2-(1-(Cyclopropylsulfonyl)-1H-pyrazol-4-yl)pyrimidin-4-yl)amino)-5-((4-(morpholinomethyl)phenyl)ethynyl)pyridin-4-yl)amino)cyclohexyl)propan-2-ol]
9 | 34.3 nM | – | > 10000 nM | – | 309 nM | – | 1.9 nM | – | 0.6 nM | – | 20.8 nM | 90.6 nM | 19.4 nM | 0.5 nM | 0.6 nM | – | – | – | – | – | Cn1cc(C#Cc2cnc(Nc3ccnc(-c4cnn(S(=O)(=O)C5CC5)c4)n3)cc2N2CC3(CCNCC3)C2)cn1 [Example 155, 2-(1-(Cyclopropylsulfonyl)-1H-pyrazol-4-yl)-N-(5-((1-methyl-1H-pyrazol-4-yl)ethynyl)-4-(2,7-diazaspiro[3.5]nonan-2-yl)pyridin-2-yl)pyrimidin-4-amine]
10 | 8.8 nM | 6.7 nM | > 10000 nM | 32.3 nM | 30.5 nM | 4.3 nM | 3.6 nM | 1.4 nM | 2.1 nM | 2 nM | – | – | – | – | – | – | – | – | – | – | O=S(=O)(C1CC1)n1cc(-c2nccc(Nc3cc(N[C@H]4CC[C@@H](O)CC4)c(C#Cc4cnn(C5CCOCC5)c4)cn3)n2)cn1 [Example 94, (1s,4s)-4-((2-((2-(1-(Cyclopropylsulfonyl)-1H-pyrazol-4-yl)pyrimidin-4-yl)amino)-5-((1-(tetrahydro-2H-pyran-4-yl)-1H-pyrazol-4-yl)ethynyl)pyridin-4-yl)amino)cyclohexan-1-ol]
11 | 3.2 nM | – | 4540 nM | – | 17.1 nM | – | 0.3 nM | – | 0.3 nM | – | – | – | – | – | – | – | – | – | – | – | CN1CCC2(CC1)CCN(c1cc(Nc3ccnc(-c4cnn(S(=O)(=O)C5CC5)c4)n3)ncc1C#Cc1cnn(C3CC3)c1)CC2 [Example 319, N-(5-((1-Cyclopropyl-1H-pyrazol-4-yl)ethynyl)-4-(9-methyl-3,9-diazaspiro[5.5]undecan-3-yl)pyridin-2-yl)-2-(1-(cyclopropylsulfonyl)-1H-pyrazol-4-yl)pyrimidin-4-amine]
12 | 2 nM | 2 nM | 4380 nM | 6 nM | 4.7 nM | 1.2 nM | 1.3 nM | 0.5 nM | 0.9 nM | 0.8 nM | – | – | – | – | – | – | – | – | – | – | CC(=O)N1CCC(n2cc(C#Cc3cnc(Nc4ccnc(-c5cnn(S(=O)(=O)C6CC6)c5)n4)cc3N3CCC(F)(CO)CC3)cn2)CC1 [Example 111, 1-(4-(4-((6-((2-(1-(Cyclopropylsulfonyl)-1H-pyrazol-4-yl)pyrimidin-4-yl)amino)-4-(4-fluoro-4-(hydroxymethyl)piperidin-1-yl)pyridin-3-yl)ethynyl)-1H-pyrazol-1-yl)piperidin-1-yl)ethan-1-one]
13 | 1.6 nM | 1.4 nM | > 10000 nM | 35 nM | 11.5 nM | 1.8 nM | 0.9 nM | 0.3 nM | 1.7 nM | 0.6 nM | – | – | – | – | – | – | – | – | – | – | Cn1cc(C#Cc2cnc(Nc3ccnc(-c4cnn(S(=O)(=O)C5CC5)c4)n3)cc2N2CCC(NCC(F)F)CC2)cn1 [Example 126, 2-(1-(Cyclopropylsulfonyl)-1H-pyrazol-4-yl)-N-(4-(4-((2,2-difluoroethyl)amino)piperidin-1-yl)-5-((1-methyl-1H-pyrazol-4-yl)ethynyl)pyridin-2-yl)pyrimidin-4-amine]
